In ChEMBL document CHEMBL3507680, “University of Dundee, Gates Library screen for HepG2 cell viability”:

Test: Human HepG2 cell viability assay in 384 well format
Assay type: toxicity, cell-based
Design: dose 125 nL, time 70.5 hour; concentration not given beside the values
Settings: HepG2 cells, read-out: Inhibition

Structure (SMILES) | cytotoxicity at 70.5 h
O=C(NCCN1CCCC1)c1nc2c(o1)CN(c1ncccn1)C2 | -1.07%
Cc1cc(O)n(-c2ccccc2Cl)c(=O)c1C#N | -0.226%
CC(=O)N1CCCc2sc(C(=O)Nc3ccc(C)nc3)nc21 | -1.24%
CN(C)C(=O)CN1CCC(c2c(C(N)=O)sc3ncccc23)C1 (centres undefined) | -5.25%
Cc1cc(C)n(CC2CCCCN2CCCS(N)(=O)=O)n1 (centres undefined) | 14%
CCN(C)Cc1nc(-c2ccccc2NS(C)(=O)=O)oc1C | -10.5%
CC(CNC(=O)c1cccnc1O)Cn1cccn1 (centres undefined) | -7.01%
CCn1c(C2CCN(Cc3cc(C)n(NC(C)=O)c3C)CC2)n[nH]c1=O | -4.98%
CC(C)c1[nH]c2ncccc2c1CN1CCN(S(=O)(=O)N(C)C)CC1 | -7.69%
CCNC(=O)N1CCC(Nc2nccc(NCC)n2)CC1 | -11.4%
O=C(CCc1ccsc1)NCC1CCN(C2CC2)C1 (centres undefined) | -7.4%
CCCn1nc(C)c(-c2cncn2CC2(N(C)C)CCC(C)CC2)c1C (centres undefined) | -5.71%
Cc1nc(C)n(C2CCCN(C(=O)CCCOc3ccccc3)C2)n1 (centres undefined) | 3.66%
CSc1[nH]nc(NC(=O)c2cccs2)c1C#N | -10.4%
CC(C)c1nc(CCNC(=O)NCc2ccnc(N(C)C)c2)cs1 | -10.2%
Cc1ccc(CN(C)C(=O)CN2CCc3ccccc3C2)o1 | -6.98%
c1ccc(OCCCN2CCOC(CNc3cccnn3)C2)cc1 (centres undefined) | -6.97%
COc1ccc(C(=O)NCCNC(=O)c2cncnc2C)cc1 | -8.47%
CC(=O)N(Cc1ncc(C)o1)C1CCN(Cc2sc(C)nc2C)C1 (centres undefined) | -3.28%
COc1ccc2c(c1)NC(=O)C2OC(=O)CC(C)(C)C (centres undefined) | -9.54%
CNC(=O)C(C)S(=O)(=O)Cc1csc(-c2cccs2)n1 (centres undefined) | -7.57%
COCCc1noc(CN2CC(n3nc(C)cc3C)C2)n1 | 4.95%
CN1CCC(c2cc(C(F)(F)F)n3ccnc3n2)CC1 | 24.8%

Structure (SMILES) | cytotoxicity at 70.5 h
Cc1nn(C)c(C)c1C(=O)NCc1ccnc(OCC(F)(F)F)c1 | -4.39%
NC(=O)C1Cc2ccccc2CN1CCC(=O)N1CCc2ccccc21 (centres undefined) | -6.41%
CN(C)c1ccc(CCCNC(=O)NCC(O)c2cccs2)cc1 (centres undefined) | -8.37%
Cc1ccc(OCCCNC(=O)Cc2nc3ncccn3n2)cc1 | -13.7%
Cc1cc(C)c(C(=O)N2CCOCC2c2c(C)n[nH]c2C)o1 (centres undefined) | -6.5%
Cc1nc(C)n(CC2CCCN2CCOc2ccccc2C#N)n1 (centres undefined) | -13.6%
CSc1nccc(N2CCC(NCc3ccc4nsnc4c3)CC2)n1 | 23.1%
O=C(CC1CC1)N1CCc2ncc(CN3CCOCC3)n2CC1 | -13.3%
CS(=O)(=O)NCC1CCCN(C(=O)c2cc3ccccc3o2)C1 (centres undefined) | -3.7%
CCCc1n[nH]c(C2CN(Cc3nnc(C4CCC4)o3)CCO2)n1 (centres undefined) | -5.35%
CC(NC(=O)C(C)(C)C)c1cc(O)nc(-c2cccnc2)n1 (centres undefined) | -5.99%
Cc1ccc(N(C)C2CCN(C(=O)c3n[nH]c4c3CCC4)CC2)nn1 | -3.25%
CCn1ccnc1SCCn1cnc2ccsc2c1=O | -10%
CN1CCC(c2nnc3n2CCN(S(=O)(=O)c2ccccc2Cl)C3)CC1 | -5.89%
Cc1cc(C(=O)N(C)CCN(C)C(=O)OC(C)(C)C)oc1C | -2.24%
CNc1nc(C)c(-c2nc(-c3c(C)ncc4c3CCNC4)no2)s1 | -16.8%
O=C(N1CCCC1)N1CCC(Nc2ccncn2)CC1 | -3.32%
CC(=O)c1cccc(NC(=O)N(CCO)C2CCc3ccccc32)c1 (centres undefined) | 26.8%
O=S(=O)(c1cccnc1)N1CCCC1COc1ccccc1 (centres undefined) | -4.52%
Cn1c(C2CC2)nc2c1CCN(CCOc1ccccc1C#N)C2 | 23.9%
CCn1cc2c(n1)C(COCC1CC1)CN(C(=O)c1cnoc1C)C2 (centres undefined) | -12.8%
C=C(C)COc1cccc(C(=O)NC(C)c2nnn[nH]2)c1 (centres undefined) | 18.4%
CCN1CCN(C2CCN(Cc3nc4ccccc4o3)CC2)C1=O | -8.04%

Structure (SMILES) | cytotoxicity at 70.5 h
CNC(=O)c1ccc(C(=O)N2CCCC2c2c(C)nn(C)c2C)cn1 (centres undefined) | -4.27%
O=C(c1ccncn1)N1C[C@@H]2CN(Cc3cccnc3)CCO[C@@H]2C1 | -12.7%
COc1ncccc1-c1nc(-c2ccccn2)nn1C1CCS(=O)(=O)C1 (centres undefined) | -7.2%
CC(C)c1nc(CC(=O)Nc2nc(CN3CCCCCC3)cs2)cs1 | 16.6%
COc1ccccc1N1CCC(CNCc2cccc(C#N)c2)C1 (centres undefined) | 35.6%
Cc1ccc(CN2CCc3onc(C(=O)N4CCCC4)c3C2)o1 | -6.06%
Cc1nnc(CN2CCCC2c2ccc3c(c2)OCCO3)n1C (centres undefined) | -3.49%
CN(C)S(=O)(=O)NC1CC(=O)N(c2ccccc2Cl)C1 (centres undefined) | -17.3%
O=C(c1ccoc1)N1CC[C@@H]2O[C@@H](COCc3ccccn3)CC[C@@H]21 | -3.1%
CCNC(=O)N1C[C@@H]2OCC(=O)N(C)[C@@H]2C1 | 7.93%
N[C@@H]1CC[C@H](C(=O)NCCn2cc(Cl)cn2)C1 | 3.97%
CCNC(=O)c1cccc(CNC(=O)c2cnc(C(C)(C)C)s2)c1 | 2.86%
CCS(=O)(=O)NC[C@]12COC[C@H]1CN(Cc1sccc1C)C2 | -0.717%
COc1ccccc1CN1CC(OC)CN(C(=O)CC(C)C)CC1=O (centres undefined) | -5.03%
O=C(O)[C@@H]1CN(C2CCOCC2)C[C@H]1C1CC1 | -7.25%
COc1cc(N(C)Cc2cc(C(C)(C)C)n[nH]2)ncn1 | 17.2%
O=C1NCCCCC1SCc1coc(-c2ccc(F)cc2)n1 (centres undefined) | 20.1%
Cc1ccc(C)c(OCC(O)Cn2ncc3cnn(C)c(=O)c32)c1 (centres undefined) | 6.69%
Cc1cnn(CC2CCCN2CC(=O)Nc2nc(C)cs2)c1 (centres undefined) | 1.41%
COc1ccc(C(C)NC(=O)NCCNc2ccccn2)c(OC)c1 (centres undefined) | 27.8%
Cc1cc(C)c(CNC(=O)N2CCN(c3ncccn3)CC2)c(=O)[nH]1 | 0.0542%
Cc1n[nH]c(C)c1CCC(=O)N[C@@H]1CCC[C@@H](Oc2ccccc2)[C@@H]1O | 21.6%
CC(C)(O)CCc1ccc(C(=O)N2CCN(CC3CCCC3)CC2)cc1 | 4.24%

Structure (SMILES) | cytotoxicity at 70.5 h
Cc1cccc(CNCC2COC3(CCCC3)O2)c1C (centres undefined) | 3.58%
Cc1cc(F)ccc1N1CCC(N2C[C@@H](CN(C)C)[C@@H](CO)C2)CC1 | -6.24%
CC(C)n1c2ccccc2c2c1cc(C(=O)N(C)C)n2C(=O)N(C)C | -0.266%
NCC1CN(c2nc(-c3ccccc3)nc3c2CCNCC3)CCO1 (centres undefined) | 3.02%
COc1ccsc1C(=O)N1CCCC(n2cncn2)C1 (centres undefined) | -2.59%
CN1CCN(C2COC3(CCN(Cc4cccs4)CC3)C2)CC1 (centres undefined) | 4.27%
OC1CCCN(CCNc2ncc(Cl)cc2F)C1 (centres undefined) | 16.2%
CCc1nnc2n1CCN(Cc1nnc(-c3occc3C)o1)C2 | -4.81%
COc1ccccc1CNC(=O)N1CCCC(CO)C1 (centres undefined) | 11.7%
Cn1ccnc(Sc2cccc(C#N)c2)c1=O | -4.29%
CSc1ccc(NCC(=O)NCC2CC2)cc1F | -3.73%
CCCc1nnc([C@H]2CCN(Cc3ncc[nH]3)C2)o1 | -1.6%
O=C1CC(c2cccnc2)c2c(c(C(=O)O)cn2-c2cccc(F)c2)N1 (centres undefined) | -8.96%
COc1ccccc1N1CCC(CNC(=O)CN2CSCC2=O)C1 (centres undefined) | -7.92%
CS(=O)(=O)NCc1cc(-c2cc(F)cc(F)c2)nc(N2CCOCC2)n1 | -13.9%
O=C(Nc1cc(Cl)ccc1Cl)NC1CCN(C2CCOC2)CC1 (centres undefined) | 25.3%
Cc1noc(CN(CCc2cccs2)Cc2cccc(C#N)c2)n1 | 0.848%
CNC(=O)c1ccc(C2CN(Cc3ccc(F)cc3)CCO2)nc1 (centres undefined) | -1.99%
CC(C)n1cc(C(=O)NCCCn2ccnc2)c2n[nH]c(=O)c-2c1 | -6.63%
CC(C)N1CCN(C(=O)C(C)n2cncn2)CC1 (centres undefined) | 5.67%
Cc1nc2[nH]cnc(Nc3ccn(C)n3)c-2n1 | -4.89%
Nc1nccc(C2CCN(CC3CC3)C2)n1 (centres undefined) | 17.6%
CN(C)Cc1cnc2n1CCN(C(=O)NC1CCCC1)CC2 | -1.58%

Structure (SMILES) | cytotoxicity at 70.5 h
Cc1nc(CNC(=O)c2cc(COc3ccccc3F)[nH]n2)n[nH]1 | 17.2%
Cc1noc(C)c1CC(=O)N1CCN(Cc2cscn2)CC1 | -1.94%
COc1cc(N2C[C@H]3CCC[C@@H](CN(C)C)[C@H]3C2)ncn1 | -10.1%
NC(=O)CS(=O)(=O)Cc1ccc(OCc2ccc(F)cc2)cc1 | -2.96%
Cc1nc(CCNc2nc(N(C)C)nc3c2CCCC3)cc(=O)[nH]1 | -10.9%
CC(C)C(NC(=O)N1CCN(c2ccc(Cl)cc2)CC1)C(=O)NC1CC1 (centres undefined) | -6.65%
Cc1cc(C(=O)N2CCC3(CC2)c2nc[nH]c2CCN3CC(C)C)no1 | 7%
CC(C)N1CCN(C(=O)Nc2cnn(CC(N)=O)c2)CC1 | 18.2%
COc1ccc2c(ccn2CCN)c1 | 5.97%
COCc1cnc2n1CCN(C(=O)c1ccc3ccccc3n1)C2C (centres undefined) | -8.35%
CN(C)Cc1nnc(C2CCN(c3nccc(N)n3)CC2)n1C1CC1 | 2.16%
Cn1cc(CNC(=O)NCCOc2ccc(F)c(F)c2)cn1 | -0.0625%
CN(CCc1ccccc1)Cc1nc(-c2cnccn2)no1 | -8.36%
CN1CCN(CCCNC(=O)c2nc3ccccc3c(=O)[nH]2)CC1 | -19.4%
Cc1noc(C)c1CN1C[C@@H](OCC(=O)N(C)C)[C@H]2OCCC[C@H]21 | -9.4%
O=C(CN1CCN(CC(O)C2CC2)CC1)NCc1ccccc1 (centres undefined) | -8.44%
CC(C)(C)C(=O)N1CCCC1c1ccc(C(=O)N2CCOCC2)s1 (centres undefined) | 16.2%
Cn1cc(C[C@H]2[C@H](O)CCN2CC2CCOCC2)cn1 | -6.28%
CCCNC(=O)c1ccc(S(=O)(=O)NCC2(COC)CCCC2)cc1 | -4.17%
Cc1nsc(N2CCN(CC(=O)N(C3CC3)C(C)C3CC3)CC2)n1 (centres undefined) | 13.6%
Cn1nc(Br)c2c(NCCSCCCO)ncnc21 | -10.5%
COCCN(C)S(=O)(=O)c1cc(C)cc(F)c1 | -5.49%
